Activity calls are given as the source filed them.
Assays:
HEK293 [1] = assay: NOD2 signaling inhibitors in MDP-stimulated cells, cell-based, uHTS, luminescence (AID 2001); format: functional; details: Homo sapiens
HEK293 [2] = assay: cells; format: functional, cell-based; details: Homo sapiens
HEK293 [3] = assay: inhibition of NOD1-driven NF-kB reporter – cell-based, luminescence, uHTS, primary screen (AID 1578); format: functional; details: Homo sapiens
HEK293 [4] = assay: cells; format: functional, cell-based; details: Homo sapiens; remark: listed apart in the source
[5] = HIV-1 AD8 envelope cell-cell fusion blockers – cherry-pick, dose response (AID 652062); format: functional, cell-based;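 also: luciferase signal from cell-cell fusion driven by HIV-1 clade B AD8 Env; potency is for inhibitors of fusion seen as a drop in luminescence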
[6] = blockers of HIV-1 envelope-mediated cell-cell fusion – cherry-pick, dose response (AID 652057); format: functional, cell-based
[7] = viability loss in THP-1 monocytes – THP-1 cells, cytotoxicity control for Vif-APOBEC3G degradation inhibitor project, dose response (AID 1117359); format: functional; details: THP-1
[8] = target: T1, Replicative DNA helicase DnaB (Mycobacterium tuberculosis, UniProt P9WMR3); assay: DnaB intein splicing inhibitors, dose response, biochemical, cell-free fluorescence (AID 449749); format: functional
T1 sequence (P9WMR3 whole entry): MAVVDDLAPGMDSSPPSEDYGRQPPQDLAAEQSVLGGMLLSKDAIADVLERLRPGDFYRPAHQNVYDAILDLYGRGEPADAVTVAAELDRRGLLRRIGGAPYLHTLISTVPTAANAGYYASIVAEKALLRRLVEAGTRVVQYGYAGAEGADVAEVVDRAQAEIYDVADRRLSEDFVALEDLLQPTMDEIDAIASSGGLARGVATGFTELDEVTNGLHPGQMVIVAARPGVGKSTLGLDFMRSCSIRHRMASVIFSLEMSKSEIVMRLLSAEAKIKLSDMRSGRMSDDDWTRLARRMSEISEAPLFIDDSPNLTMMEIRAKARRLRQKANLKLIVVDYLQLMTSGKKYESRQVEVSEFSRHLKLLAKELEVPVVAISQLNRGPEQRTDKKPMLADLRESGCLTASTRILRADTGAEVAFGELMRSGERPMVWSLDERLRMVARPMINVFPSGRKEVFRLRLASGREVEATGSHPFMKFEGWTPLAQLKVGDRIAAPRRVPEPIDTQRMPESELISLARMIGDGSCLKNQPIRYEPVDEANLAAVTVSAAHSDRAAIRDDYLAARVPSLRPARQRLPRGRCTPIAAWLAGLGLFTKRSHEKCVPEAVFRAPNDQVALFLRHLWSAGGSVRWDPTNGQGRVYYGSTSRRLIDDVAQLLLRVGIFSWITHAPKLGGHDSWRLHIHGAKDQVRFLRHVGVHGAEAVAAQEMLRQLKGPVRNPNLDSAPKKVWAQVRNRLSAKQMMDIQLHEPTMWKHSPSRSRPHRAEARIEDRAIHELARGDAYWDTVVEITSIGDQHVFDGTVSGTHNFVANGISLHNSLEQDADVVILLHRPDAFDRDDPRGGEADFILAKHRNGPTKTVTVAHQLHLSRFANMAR

Protein RecA = target: T2, Protein RecA (Mycobacterium tuberculosis, UniProt P9WHJ3); assay: Fluorescence Cell-Free Homogeneous Dose Retest to Identify Inhibitors of RecA-Intein Splicing Activity. [Related pubchem assays (depositor defined):AID2097, AID2223, AID489010, AID492950]; format: functional
T2 sequence (P9WHJ3 whole entry): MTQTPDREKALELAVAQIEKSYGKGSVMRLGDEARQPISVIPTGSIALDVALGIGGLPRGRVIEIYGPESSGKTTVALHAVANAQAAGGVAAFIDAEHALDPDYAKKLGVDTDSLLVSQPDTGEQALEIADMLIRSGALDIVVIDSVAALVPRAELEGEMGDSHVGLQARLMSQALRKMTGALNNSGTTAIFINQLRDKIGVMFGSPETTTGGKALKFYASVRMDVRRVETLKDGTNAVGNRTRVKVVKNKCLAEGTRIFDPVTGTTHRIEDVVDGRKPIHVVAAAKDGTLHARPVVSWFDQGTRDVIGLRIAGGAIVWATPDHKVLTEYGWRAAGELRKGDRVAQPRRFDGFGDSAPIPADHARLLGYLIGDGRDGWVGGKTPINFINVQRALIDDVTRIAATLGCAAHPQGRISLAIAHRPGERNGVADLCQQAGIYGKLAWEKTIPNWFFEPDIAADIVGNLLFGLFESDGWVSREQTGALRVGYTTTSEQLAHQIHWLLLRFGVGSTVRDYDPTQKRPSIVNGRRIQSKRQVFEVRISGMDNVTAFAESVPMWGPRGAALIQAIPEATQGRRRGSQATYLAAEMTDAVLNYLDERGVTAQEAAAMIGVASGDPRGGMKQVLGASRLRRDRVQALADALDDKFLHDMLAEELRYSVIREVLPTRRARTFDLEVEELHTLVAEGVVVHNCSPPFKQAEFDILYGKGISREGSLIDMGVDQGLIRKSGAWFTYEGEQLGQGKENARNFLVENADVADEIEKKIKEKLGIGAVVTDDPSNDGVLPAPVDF

H9c2 = assay: cells; format: functional, cell-based; details: Rattus norvegicus, H9c2, Myocardium;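 also: confirmatory concentration-response retest of ultra-high-throughput screening hits for modulation of myocardial damage; cell death induced by hydrogen peroxide oxidative stress; compound pretreatment for 60 min then peroxide exposure for 2 h; potency is for protecting the cells against peroxide damage rather than for killing them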
[9] = target: T3, Short transient receptor potential channel 4 (Mus musculus, UniProt Q9QUQ5); assay: calcium entry via TRPC4 opening agents – cell-based, HEK293 TRPC4/mu-opioid, Fluo-4 calcium, dose response (AID 434937); format: functional
T3 sequence (Q9QUQ5 whole entry): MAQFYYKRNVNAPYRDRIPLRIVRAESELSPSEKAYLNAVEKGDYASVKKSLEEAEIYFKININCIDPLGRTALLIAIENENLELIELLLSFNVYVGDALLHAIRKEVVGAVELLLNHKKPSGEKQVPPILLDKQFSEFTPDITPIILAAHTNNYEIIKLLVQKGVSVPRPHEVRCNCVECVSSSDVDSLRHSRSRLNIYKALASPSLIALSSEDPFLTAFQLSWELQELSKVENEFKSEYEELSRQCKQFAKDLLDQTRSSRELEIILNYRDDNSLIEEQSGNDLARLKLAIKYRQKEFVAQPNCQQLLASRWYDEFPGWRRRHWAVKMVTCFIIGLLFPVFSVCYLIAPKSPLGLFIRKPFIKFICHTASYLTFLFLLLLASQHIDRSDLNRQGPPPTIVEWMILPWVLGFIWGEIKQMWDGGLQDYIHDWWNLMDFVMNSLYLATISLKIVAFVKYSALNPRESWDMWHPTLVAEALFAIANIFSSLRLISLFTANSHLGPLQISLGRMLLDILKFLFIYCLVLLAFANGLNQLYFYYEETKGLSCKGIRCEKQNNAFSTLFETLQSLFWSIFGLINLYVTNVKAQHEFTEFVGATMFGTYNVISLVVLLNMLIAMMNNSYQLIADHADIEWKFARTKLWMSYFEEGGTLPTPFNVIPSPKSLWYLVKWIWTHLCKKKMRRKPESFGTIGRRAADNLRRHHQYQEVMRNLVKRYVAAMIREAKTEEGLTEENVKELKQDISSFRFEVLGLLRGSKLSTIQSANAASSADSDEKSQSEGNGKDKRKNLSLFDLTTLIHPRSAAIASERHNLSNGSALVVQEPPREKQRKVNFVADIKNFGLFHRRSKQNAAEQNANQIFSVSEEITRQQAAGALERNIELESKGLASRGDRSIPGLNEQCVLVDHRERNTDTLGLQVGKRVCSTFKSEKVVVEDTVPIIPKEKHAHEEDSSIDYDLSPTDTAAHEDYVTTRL

[10] = target: Glucose-6-phosphate 1-dehydrogenase (Homo sapiens, UniProt P11413); assay: inhibition of Homo sapiens G6PD, dose series – biochemical, fluorescence, selectivity assay for P. falciparum G6PD inhibitor project, dose response (AID 504792); format: functional
Chain of Glucose-6-phosphate 1-dehydrogenase (P11413 whole entry): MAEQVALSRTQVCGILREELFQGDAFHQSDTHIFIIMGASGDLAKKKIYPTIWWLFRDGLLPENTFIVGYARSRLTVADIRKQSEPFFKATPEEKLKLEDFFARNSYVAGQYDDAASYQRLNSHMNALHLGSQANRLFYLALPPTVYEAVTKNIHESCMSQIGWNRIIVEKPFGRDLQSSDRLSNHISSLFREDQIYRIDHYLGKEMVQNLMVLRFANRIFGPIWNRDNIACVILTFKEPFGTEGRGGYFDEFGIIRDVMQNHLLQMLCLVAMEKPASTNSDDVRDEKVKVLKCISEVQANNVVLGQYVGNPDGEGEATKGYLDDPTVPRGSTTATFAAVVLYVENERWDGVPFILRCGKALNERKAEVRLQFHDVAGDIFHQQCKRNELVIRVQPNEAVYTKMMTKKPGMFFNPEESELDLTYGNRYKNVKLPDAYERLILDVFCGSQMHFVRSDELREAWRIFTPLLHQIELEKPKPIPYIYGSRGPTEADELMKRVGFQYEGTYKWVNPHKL

[11] = target: T4, High affinity choline transporter 1 (Homo sapiens, UniProt Q9GZV3); assay: human choline transporter blockers, potency – cell-based, 5-point CRC, membrane potential dye, dose response (AID 504840); format: functional
T4 sequence (Q9GZV3 whole entry): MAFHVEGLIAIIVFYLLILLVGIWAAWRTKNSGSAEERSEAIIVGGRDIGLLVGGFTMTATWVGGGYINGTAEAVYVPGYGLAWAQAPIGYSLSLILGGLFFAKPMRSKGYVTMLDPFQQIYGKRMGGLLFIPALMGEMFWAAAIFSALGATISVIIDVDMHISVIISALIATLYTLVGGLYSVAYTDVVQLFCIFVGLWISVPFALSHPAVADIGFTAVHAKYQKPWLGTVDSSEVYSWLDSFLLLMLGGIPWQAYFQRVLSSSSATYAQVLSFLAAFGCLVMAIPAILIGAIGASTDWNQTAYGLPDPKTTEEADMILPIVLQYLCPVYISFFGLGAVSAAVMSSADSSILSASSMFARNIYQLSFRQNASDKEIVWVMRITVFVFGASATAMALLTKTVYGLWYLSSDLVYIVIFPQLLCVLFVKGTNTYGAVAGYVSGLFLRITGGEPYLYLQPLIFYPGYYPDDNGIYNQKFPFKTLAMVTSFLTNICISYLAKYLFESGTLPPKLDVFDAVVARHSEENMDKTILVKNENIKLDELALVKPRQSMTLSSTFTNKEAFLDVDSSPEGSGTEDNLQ

Cytochrome P450 2C9 = Cytochrome P450 2C9 (Homo sapiens, UniProt P11712)
Chain of Cytochrome P450 2C9 (P11712 whole entry): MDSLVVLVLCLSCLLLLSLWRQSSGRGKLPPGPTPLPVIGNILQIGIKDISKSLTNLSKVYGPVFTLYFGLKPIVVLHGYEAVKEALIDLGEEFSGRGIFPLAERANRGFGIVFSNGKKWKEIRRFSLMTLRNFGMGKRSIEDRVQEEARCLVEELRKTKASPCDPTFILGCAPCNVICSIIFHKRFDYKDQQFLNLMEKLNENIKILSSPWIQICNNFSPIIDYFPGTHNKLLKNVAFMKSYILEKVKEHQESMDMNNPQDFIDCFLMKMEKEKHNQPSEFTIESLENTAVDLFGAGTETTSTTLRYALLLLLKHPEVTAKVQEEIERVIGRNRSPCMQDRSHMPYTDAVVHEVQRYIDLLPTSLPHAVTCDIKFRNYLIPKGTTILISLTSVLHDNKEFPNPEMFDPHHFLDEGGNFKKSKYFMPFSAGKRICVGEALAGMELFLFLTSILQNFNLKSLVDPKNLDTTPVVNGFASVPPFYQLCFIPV

[12] = blockade of melanocortin 4 receptor signaling – cell-based, plate reader, cherry pick, counter-screen for LGR2 antagonist project, dose response (AID 743444); format: functional;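 also: transfected HEK 293 cells stimulated with alpha-MSH peptide; potency of inhibitors of the alpha-MSH evoked signal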
[13] = blockers of bursicon-stimulated LGR2 cAMP reporter – cell-based, HEK293, CRE-luciferase reporter, cherry pick, set 2, dose response (AID 743343); format: functional;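 also: transfected cells were stimulated with diluted bursicon conditioned medium after compound addition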
[14] = reduction of Shn3 3'UTR-driven luciferase in osteoblasts – cell-based, Clone20 osteoblasts, firefly luciferase, cherry-picked, dose response (AID 624132); format: functional;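 also: firefly luciferase luminescence from reporter carrying the Shn3 3'UTR in osteoblasts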
[15] = loss of viability in HepG2 cells – cell-based, CellTiter-Glo, cherry-picked, cytotoxicity control for Shn3 inhibitor project, dose response (AID 624134); format: functional
[16] = Luminescence Cell-Based Dose Response HTS to Identify Inhibitors of 5'UTR Stem-Loop Driven Prion Protein mRNA Translation in H4 Neuroglioblastoma Cells. [Related pubchem assays: 1827 (Project Summary), 1813 (Primary HTS)]; format: functional
[17] = alpha-synuclein stem-loop luciferase translation blockers – H4 neuroglioma cells, luminescence, confirmation (AID 1988); format: functional, cell-based
[18] = luciferase reporter signal suppression in cells – H4 neuroglioma cells, luminescence, dose response (AID 1990); format: functional, cell-based

Cc1nc(C)c(-c2ccc(SCC(=O)Nc3cccc(Cl)c3)nn2)s1
IC50 (HEK293 [1]): 4.58 µM (active) | IC50 (HEK293 [2]): > 20 µM (inactive) | EC50 (HEK293 [3]): > 20 µM (inactive) | IC50 (HEK293 [4]): 4.18 µM (active)

N#Cc1ccc(CN2CCN(C(=O)CNC(=O)Cc3cccc4ccccc34)CC2)cc1
AC50 [5]: 10.3 µM (active) | AC50 [6]: 57.1 µM (active)

CC(C)CC(NC(=O)CCl)c1ccccc1 (configuration not stated)
CC50 [7]: > 40 µM (active) | AC50 [8]: 320 µM (active) | EC50 (Protein RecA): 4.29 µM (active)

CCOC(=O)c1cccc(C2=C(CNC(=O)c3cccnc3)[C@H]3CC[C@@H](C2)N3Cc2ccccc2)c1
IC50 (H9c2): 35.3 µM (inactive)

CN(C)c1ccc(NC(=S)N2CCN(c3ncc(C(F)(F)F)cc3Cl)CC2)cc1
EC50 [9]: 2.66 µM (active)

C=CCc1c(C)nc(S)c(C#N)c1C
IC50 [10]: > 80 µM (inactive)

O=[N+]([O-])c1ccc(N2CCNCC2)c(Cl)c1
EC50 [9]: 0.596 µM (active)

COc1ccc2c(c1OC)C(=O)N1c3ccccc3C(=O)N(c3ccccc3)C21 (configuration not stated)
IC50 (H9c2): > 79 µM (inactive)

COc1cccc(C2(c3cccc(OC)c3)CC2C(=O)Nc2ccc(F)cc2)c1 (configuration not stated)
IC50 [10]: > 80 µM (inactive)

Cc1ccc2c(c1)c(CC(=O)Nc1ccc(C)c(F)c1)c(C(=O)O)n2C
IC50 [11]: 12.6 µM (active)

Cc1ccc(C(=O)N/C(=C/C=C/c2ccccc2)C(=O)NCc2ccco2)cc1
IC50 [11]: 17.4 µM (active) | AC50 (Cytochrome P450 2C9): 10 µM (inconclusive)

O=c1[nH]c2ccccc2c2ccccc12
IC50 (H9c2): > 79 µM (inactive)

Cc1ccc(C(=O)NC2CCCCC2)cc1S(=O)(=O)N1CCCC1
IC50 [11]: 1.26 µM (active)

C[C@@H]1CN([C@@H](C)CO)C(=O)c2cccc(NS(=O)(=O)c3cccs3)c2O[C@@H]1CN(C)Cc1ccc(C(F)(F)F)cc1
AC50 [5]: 16.7 µM (active) | AC50 [6]: 2.04 µM (active)

CCn1c(N2CCN(Cc3ccc([N+](=O)[O-])cc3)CC2)nc2ccccc21
EC50 [9]: 0.133 µM (active)

COCCCNc1ccn2nc(-c3ccccc3)cc2n1
AC50 [12]: 6.82 µM (active) | AC50 [13]: 7.19 µM (active)

CSc1cccc(NS(=O)(=O)c2ccc3c(c2)CCN3C(C)=O)c1
IC50 (HEK293 [1]): 7.07 µM (active) | AC50 [14]: 1.49 µM (active) | AC50 [15]: 2.79 µM (active) | IC50 (HEK293 [2]): > 20 µM (inactive) | EC50 (HEK293 [3]): 2.42 µM (active) | IC50 (HEK293 [4]): 10.8 µM (active)

O=C(c1ccc2c3c(cccc13)CC2)C1CCCN(CC2CC2)C1 (configuration not stated)
EC50 [9]: 0.841 µM (active)

COc1ccc(NS(=O)(=O)c2ccc(N/N=C(\C)c3ccncc3)c([N+](=O)[O-])c2)cc1
IC50 (HEK293 [1]): 2.11 µM (active) | IC50 (HEK293 [2]): 17.8 µM (active) | EC50 (HEK293 [3]): 4.33 µM (active) | IC50 (HEK293 [4]): 3.9 µM (active)

CC1(C)CC2CC(C)(CN2C(=O)COC(=O)c2nnc(O)c3ccccc23)C1 (configuration not stated)
IC50 (H9c2): 10.7 µM (active)

O=C(CNc1ccc2c(c1)OCO2)N/N=C\c1cn(Cc2ccccc2)c2ccccc12
EC50 [16]: 10.5 µM (active) | EC50 [17]: 6.5 µM (active) | IC50 [10]: > 80 µM (inactive) | EC50 [18]: 9.09 µM (active)

CCC(=O)N1CCc2cc(Br)cc(S(=O)(=O)NCCCN(CC)Cc3ccccc3)c21
EC50 [9]: 0.0133 µM (active)
